In BindingDB's records for doi:10.1021/jm00102a020 (Merck Research Laboratories, 1993) one finds IC50 data, which are given here for seven compounds.

Chain of Integrin alpha-IIb/beta-3 (P05106 27-788 limits assumed): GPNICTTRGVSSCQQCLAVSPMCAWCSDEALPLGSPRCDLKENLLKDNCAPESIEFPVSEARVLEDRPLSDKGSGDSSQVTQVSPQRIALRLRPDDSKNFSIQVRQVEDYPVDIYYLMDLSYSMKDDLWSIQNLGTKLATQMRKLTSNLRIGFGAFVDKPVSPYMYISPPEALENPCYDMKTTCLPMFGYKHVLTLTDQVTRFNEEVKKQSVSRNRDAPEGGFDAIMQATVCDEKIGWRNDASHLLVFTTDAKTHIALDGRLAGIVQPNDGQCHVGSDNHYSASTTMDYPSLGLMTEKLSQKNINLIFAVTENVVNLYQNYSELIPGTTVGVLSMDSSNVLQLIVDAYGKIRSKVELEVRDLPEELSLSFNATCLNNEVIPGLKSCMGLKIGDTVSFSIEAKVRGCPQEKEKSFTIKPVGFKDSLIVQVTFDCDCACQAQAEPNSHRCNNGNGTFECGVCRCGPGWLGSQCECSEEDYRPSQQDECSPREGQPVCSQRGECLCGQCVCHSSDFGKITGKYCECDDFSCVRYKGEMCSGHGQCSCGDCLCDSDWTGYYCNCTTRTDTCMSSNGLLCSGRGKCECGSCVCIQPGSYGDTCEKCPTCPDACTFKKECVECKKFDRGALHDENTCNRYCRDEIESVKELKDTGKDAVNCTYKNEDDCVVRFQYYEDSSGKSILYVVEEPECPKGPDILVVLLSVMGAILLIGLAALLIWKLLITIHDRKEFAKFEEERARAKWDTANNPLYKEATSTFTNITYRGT
Chain of Integrin alpha-IIb/beta-3 (P08514 32-887 limits assumed): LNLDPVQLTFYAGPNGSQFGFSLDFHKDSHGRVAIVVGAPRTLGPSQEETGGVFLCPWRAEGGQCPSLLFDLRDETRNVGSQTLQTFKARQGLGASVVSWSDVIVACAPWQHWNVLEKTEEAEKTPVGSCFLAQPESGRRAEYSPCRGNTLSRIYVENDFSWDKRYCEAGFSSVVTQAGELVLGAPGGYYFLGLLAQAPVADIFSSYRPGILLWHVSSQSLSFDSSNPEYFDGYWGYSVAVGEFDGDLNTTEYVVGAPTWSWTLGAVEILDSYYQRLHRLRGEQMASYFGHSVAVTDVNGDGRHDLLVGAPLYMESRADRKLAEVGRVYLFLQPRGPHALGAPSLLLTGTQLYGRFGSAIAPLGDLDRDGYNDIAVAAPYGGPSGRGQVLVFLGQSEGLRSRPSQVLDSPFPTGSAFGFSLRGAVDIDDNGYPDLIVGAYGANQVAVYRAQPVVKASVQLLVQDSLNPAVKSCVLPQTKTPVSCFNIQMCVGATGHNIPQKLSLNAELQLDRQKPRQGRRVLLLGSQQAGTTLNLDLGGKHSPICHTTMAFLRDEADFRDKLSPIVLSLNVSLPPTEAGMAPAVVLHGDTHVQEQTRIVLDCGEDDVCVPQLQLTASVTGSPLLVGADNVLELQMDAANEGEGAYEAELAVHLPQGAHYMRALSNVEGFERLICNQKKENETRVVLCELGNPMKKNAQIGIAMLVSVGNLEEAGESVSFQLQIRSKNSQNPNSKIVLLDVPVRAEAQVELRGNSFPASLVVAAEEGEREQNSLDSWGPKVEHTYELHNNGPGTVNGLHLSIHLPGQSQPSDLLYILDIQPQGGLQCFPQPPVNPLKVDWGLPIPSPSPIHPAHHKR
Chain of Integrin alpha-IIb/beta-3 (P08514 891-1039 limits assumed): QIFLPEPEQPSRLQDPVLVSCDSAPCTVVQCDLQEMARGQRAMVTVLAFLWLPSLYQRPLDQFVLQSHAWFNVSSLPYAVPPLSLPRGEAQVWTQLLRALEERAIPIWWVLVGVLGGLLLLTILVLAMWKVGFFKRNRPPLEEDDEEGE

The experiment concerns the target Integrin alpha-IIb/beta-3 (Homo sapiens, UniProt P08514+P05106). Kind of experiment: ChEBML_90196. An excerpt: In vitro inhibition of ADP-mediated human gel filtered platelet aggregation.
Regarding `NCCCCCCOc1ccc(C[C@H](NS(=O)(=O)Cc2ccccc2)C(=O)O)cc1`, 2 µM corresponded to half-maximal inhibition (IC50).

`CC(C)(C)NCCCOc1ccc(C[C@H](NC(=O)OCc2ccccc2)C(=O)O)cc1` [(S)-2-Benzyloxycarbonylamino-3-[4-(3-tert-butylamino-propoxy)-phenyl]-propionic acid] came in with an IC50 of 22 µM.

As to `O=C(N[C@@H](Cc1ccc(OCCCc2ccccc2)cc1)C(=O)O)OCc1ccccc1`, the IC50 was > 1000 µM.

`CC(C)(C)NCC(O)COc1ccc(C[C@H](NC(=O)OCc2ccccc2)C(=O)O)cc1` (some centres not stated): the 50% inhibitory concentration (IC50) was determined as 27 µM.

In the case of `NCCCCCCOc1ccc(CCC(=O)O)cc1`, the IC50 is > 100 µM.

In the case of `NCCCCCCCCOc1ccc(C[C@H](NC(=O)OCc2ccccc2)C(=O)O)cc1` [3-[4-(8-Amino-octyloxy)-phenyl]-2-benzyloxycarbonylamino-propionic acid], inhibition was half-maximal at 40 µM (IC50). In other words, the double-digit micromolar range.

With `CCCCCC(=O)N[C@@H](Cc1ccc(OCCCCCCN)cc1)C(=O)O`, the IC50 came out at 3.8 µM.

The term IC50 denotes the concentration that gives 50% inhibition.
